Laboratory results reported in PMC4053474 (Bioconjugate chemistry, 2008).

Tests used:
[1] = test system: Integrin αVβ6-positive H2009 cells; assay: flow cytometric analysis of doxorubicin uptake; type: cell-based, human; conditions: 30 µM, 2 h, flow cytometry
[2] = test system: Integrin αVβ6-positive H2009 cells; assay: cell viability assay; type: cell-based, human; conditions: 200 nM to 5 µM, 24 h exposure, 72 h post-incubation, CellTiter Glo
H2009 cells = conditions: ref personal communication, Drs. John D. Minna and Michael Peyton; cited from earlier work
αvβ6 = αvβ6 (Homo sapiens, UniProt P06756+P18564); assay: binding affinity for integrin αvβ6; conditions: data not shown
Chain of αvβ6 (P06756 31-889 limits assumed): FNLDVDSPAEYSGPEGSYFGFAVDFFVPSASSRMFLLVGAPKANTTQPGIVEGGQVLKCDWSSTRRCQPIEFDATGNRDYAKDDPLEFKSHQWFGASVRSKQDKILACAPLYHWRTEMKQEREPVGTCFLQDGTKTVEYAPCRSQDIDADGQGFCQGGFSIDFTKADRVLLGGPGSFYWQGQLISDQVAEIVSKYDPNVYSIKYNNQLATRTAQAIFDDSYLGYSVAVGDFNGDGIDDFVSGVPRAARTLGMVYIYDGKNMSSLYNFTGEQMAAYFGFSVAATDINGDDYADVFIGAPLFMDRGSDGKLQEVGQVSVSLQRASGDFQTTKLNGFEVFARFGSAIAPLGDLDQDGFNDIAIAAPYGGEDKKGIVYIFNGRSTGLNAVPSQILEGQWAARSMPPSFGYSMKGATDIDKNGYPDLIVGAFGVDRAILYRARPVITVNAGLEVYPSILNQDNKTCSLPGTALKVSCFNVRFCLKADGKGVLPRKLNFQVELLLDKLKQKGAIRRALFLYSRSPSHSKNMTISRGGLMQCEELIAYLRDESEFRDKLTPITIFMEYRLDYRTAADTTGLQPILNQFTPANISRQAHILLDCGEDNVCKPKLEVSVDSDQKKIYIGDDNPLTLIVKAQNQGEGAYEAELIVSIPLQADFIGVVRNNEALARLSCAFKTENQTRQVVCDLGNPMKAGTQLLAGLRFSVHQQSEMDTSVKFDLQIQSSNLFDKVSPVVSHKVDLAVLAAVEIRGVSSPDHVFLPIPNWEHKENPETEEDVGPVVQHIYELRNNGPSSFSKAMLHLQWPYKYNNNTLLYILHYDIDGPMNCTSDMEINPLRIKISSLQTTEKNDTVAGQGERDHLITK
Chain of αvβ6 (P06756 891-1048 partner limits assumed): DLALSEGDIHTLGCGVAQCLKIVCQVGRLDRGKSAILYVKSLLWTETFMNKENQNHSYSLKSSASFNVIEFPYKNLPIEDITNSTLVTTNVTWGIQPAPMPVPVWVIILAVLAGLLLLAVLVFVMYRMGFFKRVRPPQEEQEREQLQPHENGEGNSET
Chain of αvβ6 (P18564 22-788): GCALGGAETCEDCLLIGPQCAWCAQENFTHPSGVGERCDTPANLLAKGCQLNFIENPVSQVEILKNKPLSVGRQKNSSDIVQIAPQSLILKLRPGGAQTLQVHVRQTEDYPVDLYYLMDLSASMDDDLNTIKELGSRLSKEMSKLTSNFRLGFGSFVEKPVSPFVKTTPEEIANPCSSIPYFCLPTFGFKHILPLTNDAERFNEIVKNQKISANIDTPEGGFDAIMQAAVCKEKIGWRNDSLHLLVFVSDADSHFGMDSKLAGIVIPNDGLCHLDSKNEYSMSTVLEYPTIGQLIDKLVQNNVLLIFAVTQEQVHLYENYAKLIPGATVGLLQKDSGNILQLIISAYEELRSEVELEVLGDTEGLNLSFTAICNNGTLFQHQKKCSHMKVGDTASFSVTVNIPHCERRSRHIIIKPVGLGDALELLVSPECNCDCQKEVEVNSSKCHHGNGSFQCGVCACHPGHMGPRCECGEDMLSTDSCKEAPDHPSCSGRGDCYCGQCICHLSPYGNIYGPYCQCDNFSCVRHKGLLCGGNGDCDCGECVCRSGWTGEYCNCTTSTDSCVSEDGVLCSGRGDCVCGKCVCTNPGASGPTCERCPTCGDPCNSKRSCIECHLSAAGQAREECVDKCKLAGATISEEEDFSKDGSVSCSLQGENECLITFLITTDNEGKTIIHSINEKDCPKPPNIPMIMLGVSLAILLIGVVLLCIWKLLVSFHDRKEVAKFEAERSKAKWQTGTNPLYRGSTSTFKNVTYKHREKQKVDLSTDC

With `COc1cccc2c1C(=O)c1c(O)c3c(c(O)c1C2=O)C[C@@](O)(C(=O)CO)C[C@@H]3O[C@H]1C[C@H](N)[C@H](O)[C@H](C)O1` [doxorubicin, reference compound] the “internalization into H2009 compared with H1299 cells” value [1] was “internalizes into both cell lines equally” and the “pairwise comparison of viability of H2009 and H1299 cells” value [2] was “did not demonstrate any statistical difference”.
For `CC(=O)O[C@H]1C(=O)[C@@]2(C)[C@H]([C@H](OC(=O)c3ccccc3)[C@]3(O)C[C@H](OC(=O)[C@H](O)[C@@H](NC(=O)c4ccccc4)c4ccccc4)C(C)=C1C3(C)C)[C@]1(OC(C)=O)CO[C@@H]1C[C@@H]2O` [paclitaxel], the “IC50 relative to that of doxorubicin (fold lower)” value (H2009 cells) is given as 40 fold.
With DALRLQGTLR [scrambled sequence peptide] the “binding affinity for αvβ6” value (αvβ6) was “no binding affinity”.
